# From US9162993B2, “Preparation and pharmaceuticals of biphenyl benzamide-derived derivatives” (NATIONAL DEFENSE MEDICAL CENTER, priority 2012, dated 2015)
# Assays:
# [1] = MTT assay, RAW264.7 cell viability; type: cell-based; conditions: mouse; RAW 264.7 cells; cytotoxic concentration that produces 50% cell death
# Method: (§1) The compounds 1 to 24 of the present invention is tested by three pharmacological activity tests as follows: (1) MTT assay to test the RAW264.7 cell (murine monocyte/macrophage cell line) viability; (2) Tartrate-resistant acid phosphatase (TRAP) staining and activity analysis to investigate the cell differentiation activity; (3) The activity test of bone resorption (Pit formation assay).
# (§2) The synthesized difunisal derivatives, compounds 1 to 24, were pharmacologically tested to be identified the relationship between their structure and activity. Cell viability was measured by MTT assay in RAW 264.7 cells upon treatment with compounds at 5 μM. CC50 is the cytotoxic concentration that produces 50% (CC50) cell death. […] The multinucleated osteoclasts could be formed by RANKL-induced macrophage cell line […]. RAW 264.7 cells were cultured with the indicated in the presence of drug and RANKL (100 ng/mL). Numbers of TRAP-positive (TRAP^+) multinucleated cells (MNCs) were counted in the presence of RANKL to identify the relationship between osteoclast and bone formation. […] The compound 16 performed the best inhibitory effect in the TRAP staining. The compound 16 was a derivate from compound 4 and its structure was related to compound 4. Therefore, the compound 4 and 16 were performed by TRAP assay to evaluate the effect on osteoclast differentiation by different concentration of compounds. […] According to above result, it can be speculated that: (1) Due to different substitutes on benzene ring of difunisal, the inhibitory ability of RANKL-induced osteoclast differentiation would be different. (2) Due to the electron-withdrawing group substitutes of R1 and R4 on benzene ring, or electron-withdrawing group substitutes derivatives of R2 on benzene ring, such as compound 4. (R1═F and R4═F), compound 6 (R2═CF3), compound 9 (R2═CN) and compound 16 (R1═F and R4═F), (3) compound 4 (R1═F and R4═F) and compound 6 (R2═CF3), a cyclic derivate compound 16 (R1═F and R4═F) and compound 18 (R2═CF3), the inhibitory activity would be stronger.
# RAW 264.7 cells = assay: MTT assay, RAW264.7 cell viability; type: cell-based; conditions: MTT assay, compounds at 5 μM
# Method: as §1, §2
# [2] = tested on: RANKL-induced osteoclast differentiation in RAW 264.7 cells; assay: TRAP staining, RANKL-induced osteoclast differentiation (TRAP+ multinucleated cells); type: cell-based, murine; conditions: Mus musculus, RAW264.7; RAW 264.7 cells, RANKL (100 ng/mL), compounds at 5 μM, TRAP-positive multinucleated cells; read-out: Inhibition of MNCs (%)
# Method: as §1, §2
# NO production = assay: Measurement of NO concentrations (Griess reaction) in porcine chondrocytes; type: cell-based; conditions: Sus scrofa, Chondrocyte, nitrite in supernatants, read-out: anti-inflammatory IC50 (μM) on NO production
# Method: Porcine cartilage was obtained from the hind leg joints of pigs. The synthesis of chondrocytes from cartilage was performed according to our previous report. After enzymatic digestion of articular cartilage with 2 mg/mL protease in serum-free Dulbecco's modified Eagle's medium (DMEM)/antibiotics, the specimens were then digested overnight with 2 mg/mL collagenase I and 0.9 mg/ml, hyaluronidase in DMEM containing 10% fetal bovine serum (FBS). The cells were collected, passed through a cell strainer (Becton Dickinson, Mountain View, Calif., USA), and cultured in DMEM containing 10% […] and antibiotics for 3-4 days before use.
# The measurement of NO release was reflected by determination of its stable end product, nitrite, in supernatants. The Griess reaction was performed with the concentrations of nitrite measured by a spectrophotometer. In brief, an aliquot (100 μL) of culture supernatant was incubated with 50 μL of 0.1% sulfanilamide in 5% phosphoric acid and 50 μL of 0.1% N-1-naphthyl-ethylenediamine dihydrochloride. After 10 min of incubation at room temperature, the absorbance was measured at 550 nm wavelength with a plate reader (recall, Grodig, […]).
Compound,CC50 [1] [µM],Cell viability (%) (RAW 264.7 cells),inhibition at 5 µM [2] [%],IC50 (NO production) [µM]
"O=C(Nc1ccc(Cl)cc1F)c1cc(-c2ccc(F)cc2F)ccc1O [compound 1, N-(4-chloro-2-fluorophenyl)-2′,4′-difluoro-4-hydroxybiphenyl-3-carboxamide]",17.9,77.54 ± 1.17,44.3 ± 7.93,7.94
"N#Cc1ccc(-n2c(=O)oc3ccc(-c4ccc(F)cc4F)cc3c2=O)cc1 [compound 22, 4-(6-(2,4-difluorophenyl)-2,4-dioxo-2H-benzo[e][1,3]oxazin-3(4H)-yl)benzonitrile]",> 20,108.33 ± 1.10,29.4 ± 5.48,0.55
"COc1cccc(NC(=O)c2cc(-c3ccc(F)cc3F)ccc2O)c1 [compound 12, 2′,4′-difluoro-4-hydroxy-N-(3-methoxyphenyl)-[1,1′-biphenyl]-3-carboxamide]",> 20,104.90 ± 2.62,40.8 ± 2.65,2.24
"O=C(O)c1cc(-c2ccc(F)cc2F)ccc1O [Diflunisal, reference compound]",> 20,103.82 ± 1.78,23.9 ± 1.88,> 10
"COc1ccc(-n2c(=O)oc3ccc(-c4ccc(F)cc4F)cc3c2=O)cc1OC [compound 23, 6-(2,4-difluorophenyl)-3-(3,4-dimethoxyphenyl)-2H-benzo[e][1,3]oxazine-2,4(3H)-dione]",> 20,103.05 ± 4.03,21.2 ± 2.49,0.47
"C#Cc1cccc(-n2c(=O)oc3ccc(-c4ccc(F)cc4F)cc3c2=O)c1 [compound 20, 6-(2,4-difluorophenyl)-3-(3-ethynylphenyl)-2H-benzo[e][1,3]oxazine-2,4(3H)-dione]",11,88.38 ± 4.65,57.5 ± 3.25,1.63
"O=c1oc2ccc(-c3ccc(F)cc3F)cc2c(=O)n1-c1ccccc1C(F)(F)F [compound 17, 6-(2,4-difluorophenyl)-3-(2-(trifluoromethy)phenyl)-2H-benzo[e][1,3]oxazine-2,4(3H)-dione]",15.1,95.53 ± 3.86,31.6 ± 4,> 10
"O=c1oc2ccc(-c3ccc(F)cc3F)cc2c(=O)n1-c1ccc(C(F)(F)F)cc1 [compound 19, 6-(2,4-difluorophenyl)-3-(4-(trifluoromethyl)phenyl)-2H-benzo[e][1,3]oxazine-2,4(3H)-dione]",15.5,103.01 ± 2.51,16.9 ± 4.61,0.75
"N#Cc1ccc(NC(=O)c2cc(-c3ccc(F)cc3F)ccc2O)cc1 [compound 10, N-(4-cyanophenyl)-2′,4′-difluoro-4-hydroxy-[1,1′-biphenyl]-3-carboxamide]",14.4,96.24 ± 2.29,13.9 ± 1.23,> 10
O=C(Nc1ccccc1C(F)(F)F)c1cc(-c2ccc(F)cc2F)ccc1O [compound 5],> 20,99.37 ± 3.71,42.8 ± 6.51,> 10
O=C(Nc1ccc(F)c(F)c1)c1cc(-c2ccc(F)cc2F)ccc1O [compound 3],14.6,78.42 ± 3.79,47.4 ± 5.58,0.79
"O=C(Nc1ccc(C(F)(F)F)cc1)c1cc(-c2ccc(F)cc2F)ccc1O [compound 7, 2′,4′-difluoro-4-hydroxy-N-(4-(trifluoromethyl)phenyl)-[1,1′-biphenyl]-3-carboxamide]",10.4,85.22 ± 3.83,51.5 ± 6.25,0.64
O=c1oc2ccc(-c3ccc(F)cc3F)cc2c(=O)n1-c1ccc(F)c(F)c1 [compound 15],9.96,72.15 ± 0.43,17.4 ± 7.49,0.61
